ChEMBL document CHEMBL5154789 (J Med Chem, 2022)
Calls of active or inactive are those of the source. No cut-off for these calls is given here.

Columns and labels:
[1] = molecular target: Fibroblast growth factor receptor 2 (Homo sapiens, UniProt P21802)
Description: Inhibition of FGFR2 (unknown orgin) using Tyr 04 peptide as substrate incubated for 1 hr in presence of 5 uM ATP by FRET based Z'-LYTE assay

[2] = molecular target: Fibroblast growth factor receptor 3 (Homo sapiens, UniProt P22607)
Description: Inhibition of FGFR3 (unknown orgin) using Tyr 04 peptide as substrate incubated for 1 hr in presence of 75 uM ATP by FRET based Z'-LYTE assay

BaF3 [3] = assay: cells; settings: Mus musculus, BaF3, 72 h
MDA-MB-453 = assay: cells; settings: Homo sapiens, MDA-MB-453, 120 h
Description: Antiproliferative activity against human MDA-MB-453 cells assessed as inhibition of cell growth incubated for 5 days by SRB assay

Hep 3B2 = assay: cells; settings: Homo sapiens, Hep3B, 120 h
Description: Antiproliferative activity against human Hep3B cells assessed as inhibition of cell growth incubated for 5 days by SRB assay

NCI-H1299 = assay: cells; settings: Homo sapiens, NCI-H1299, 120 h
Description: Antiproliferative activity against human NCI-H1299 cells assessed as inhibition of cell growth incubated for 5 days by SRB assay

[4] = molecular target: Fibroblast growth factor receptor 4 (Homo sapiens, UniProt P22455); assay: Inhibition of N-terminal 6His-tagged FGFR4 (unknown orgin) (445 to 753 residues) expressed in Rosetta (NEB) cells using Tyr 04 peptide as substrate incubated for 1 hr in presence of 150 uM ATP by FRET based Z'-LYTE assay
[5] = molecular target: Fibroblast growth factor receptor 1 (Homo sapiens, UniProt P11362)
Description: Inhibition of FGFR1 (unknown orgin) using Tyr 04 peptide as substrate incubated for 1 hr in presence of 25 uM ATP by FRET based Z'-LYTE assay

BaF3 [6] = assay: Antiproliferative activity against mouse BAF3 cells expressing FGFR4 V550M mutant assessed as inhibition of cell growth incubated for 72 hrs by CCK8 assay; format: functional, cell-based; settings: BaF3, 72 h
[7] = Antiproliferative activity against human JHH7 cells assessed as inhibition of cell growth incubated for 5 days by SRB assay; format: functional, cell-based; settings: JHH7, 120 h
Huh-7 [8] = assay: Antiproliferative activity against human Huh-7 cells assessed as inhibition of cell growth incubated for 5 days by SRB assay; format: functional, cell-based; settings: Huh-7, 120 h
BaF3 [9] = assay: Antiproliferative activity against mouse BAF3 cells assessed as inhibition of cell growth incubated for 72 hrs by CCK8 assay; format: functional, cell-based; settings: BaF3, 72 h
BaF3 [10] = assay: cells; settings: Mus musculus, BaF3, 72 h; remark: listed apart in the source
[11] = molecular target: Fibroblast growth factor receptor 4 (Mus musculus) (UniProt Q03142); assay: Inhibition of wild type FGFR4 phosphorylation in mouse BAF3 cells at 30 nM incubated for 6 hrs by Western blot analysis; format: cell-based
[12] = molecular target: Fibroblast growth factor receptor 4 (Mus musculus) (UniProt Q03142); assay: Inhibition of wild type FGFR4 phosphorylation in mouse BAF3 cells assessed as reduction in FRS2 level at 3 to 90 nM incubated for 6 hrs by Western blot analysis; format: cell-based; settings: dose 3-90 nM
[13] = molecular target: Fibroblast growth factor receptor 4 (Mus musculus) (UniProt Q03142); assay: Inhibition of wild type FGFR4 phosphorylation in mouse BAF3 cells assessed as reduction in MAPK level at 3 to 90 nM incubated for 6 hrs by Western blot analysis; format: cell-based; settings: dose 3-90 nM
BaF3 [14] = assay: Inhibition of FGFR4 V550L mutant signalling in mouse BAF3 cells at 3 to 90 nM incubated for 6 hrs by Western blot analysis; format: cell-based; settings: dose 3-90 nM
Huh-7 [15] = assay: Antitumor activity against human Huh-7 cells xenografted in ip dosed BALB/c nude mouse assessed as tumor growth inhibition administered twice daily for 17 continuous days and measured every 2 days; format: functional, organism-based; settings: time 17.0 day, DDE = dose-dependent effect
Huh-7 [16] = assay: Antitumor activity against human Huh-7 cells xenografted in BALB/c nude mouse assessed as tumor growth inhibition at 20 mg/kg, ip administered twice daily for 17 continuous days and measured every 2 days; format: functional; settings: Huh-7, 408 h, time 17 day, read-out: TGI
Huh-7 [17] = assay: Antitumor activity against human Huh-7 cells xenografted in BALB/c nude mouse assessed as tumor growth inhibition at 40 mg/kg, ip administered twice daily for 17 continuous days and measured every 2 days; format: functional; settings: Huh-7, 408 h, time 17 day, read-out: TGI
[18] = Toxicity in BALB/c nude mouse xenografted with human Huh-7 cells assessed as loss of body weight at 20 to 40 mg/kg, […] administered twice daily for 17 days and measured every 2 days; format: organism-based; settings: in vivo, 408 h, dose 20-40 mg/kg, time 17 day

Fibroblast growth factor receptor 1, sequence (P11362 whole entry): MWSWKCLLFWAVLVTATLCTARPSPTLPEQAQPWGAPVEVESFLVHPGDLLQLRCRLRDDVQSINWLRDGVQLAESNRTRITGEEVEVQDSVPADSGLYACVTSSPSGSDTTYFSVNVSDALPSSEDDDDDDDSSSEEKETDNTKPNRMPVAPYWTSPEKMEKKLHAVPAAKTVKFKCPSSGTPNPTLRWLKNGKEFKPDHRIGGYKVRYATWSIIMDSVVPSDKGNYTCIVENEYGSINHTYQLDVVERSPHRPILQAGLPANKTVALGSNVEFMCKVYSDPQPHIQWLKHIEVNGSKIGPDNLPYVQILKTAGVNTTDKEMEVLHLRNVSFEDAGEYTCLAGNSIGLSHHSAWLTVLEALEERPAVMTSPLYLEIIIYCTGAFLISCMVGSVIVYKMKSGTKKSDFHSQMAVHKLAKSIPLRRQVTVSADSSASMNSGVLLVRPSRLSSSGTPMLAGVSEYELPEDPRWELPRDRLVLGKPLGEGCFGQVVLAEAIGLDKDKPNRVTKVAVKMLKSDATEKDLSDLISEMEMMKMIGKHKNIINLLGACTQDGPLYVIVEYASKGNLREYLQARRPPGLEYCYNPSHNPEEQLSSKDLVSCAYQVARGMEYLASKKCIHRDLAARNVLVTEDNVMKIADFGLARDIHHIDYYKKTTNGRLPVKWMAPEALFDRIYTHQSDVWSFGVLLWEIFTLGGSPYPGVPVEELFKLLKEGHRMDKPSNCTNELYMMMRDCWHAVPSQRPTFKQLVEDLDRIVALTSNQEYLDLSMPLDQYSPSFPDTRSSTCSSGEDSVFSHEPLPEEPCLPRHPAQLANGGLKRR
Fibroblast growth factor receptor 4, sequence (P22455 whole entry, the tested form may be a part): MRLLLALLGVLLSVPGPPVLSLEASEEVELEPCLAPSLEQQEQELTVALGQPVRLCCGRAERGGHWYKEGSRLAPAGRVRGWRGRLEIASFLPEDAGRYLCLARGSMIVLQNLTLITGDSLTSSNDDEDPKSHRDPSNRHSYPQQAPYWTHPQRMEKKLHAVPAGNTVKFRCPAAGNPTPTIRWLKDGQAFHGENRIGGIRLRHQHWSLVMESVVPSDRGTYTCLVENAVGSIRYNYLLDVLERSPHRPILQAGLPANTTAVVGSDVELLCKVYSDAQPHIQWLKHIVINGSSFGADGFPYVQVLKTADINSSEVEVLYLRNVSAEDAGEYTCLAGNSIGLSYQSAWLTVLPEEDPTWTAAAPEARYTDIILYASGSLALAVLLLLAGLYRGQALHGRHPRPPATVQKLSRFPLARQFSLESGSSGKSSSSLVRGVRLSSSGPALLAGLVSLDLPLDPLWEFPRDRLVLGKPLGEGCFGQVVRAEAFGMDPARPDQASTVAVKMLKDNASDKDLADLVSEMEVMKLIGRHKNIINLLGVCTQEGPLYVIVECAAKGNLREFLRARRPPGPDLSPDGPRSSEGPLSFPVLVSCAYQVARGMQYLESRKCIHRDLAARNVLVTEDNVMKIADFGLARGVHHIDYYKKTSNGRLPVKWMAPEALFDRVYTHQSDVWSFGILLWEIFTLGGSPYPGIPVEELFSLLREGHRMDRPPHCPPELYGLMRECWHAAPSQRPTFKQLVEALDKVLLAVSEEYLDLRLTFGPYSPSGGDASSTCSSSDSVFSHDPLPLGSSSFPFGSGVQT
Fibroblast growth factor receptor 4 (Mus musculus), sequence (Q03142 17-799 limits assumed): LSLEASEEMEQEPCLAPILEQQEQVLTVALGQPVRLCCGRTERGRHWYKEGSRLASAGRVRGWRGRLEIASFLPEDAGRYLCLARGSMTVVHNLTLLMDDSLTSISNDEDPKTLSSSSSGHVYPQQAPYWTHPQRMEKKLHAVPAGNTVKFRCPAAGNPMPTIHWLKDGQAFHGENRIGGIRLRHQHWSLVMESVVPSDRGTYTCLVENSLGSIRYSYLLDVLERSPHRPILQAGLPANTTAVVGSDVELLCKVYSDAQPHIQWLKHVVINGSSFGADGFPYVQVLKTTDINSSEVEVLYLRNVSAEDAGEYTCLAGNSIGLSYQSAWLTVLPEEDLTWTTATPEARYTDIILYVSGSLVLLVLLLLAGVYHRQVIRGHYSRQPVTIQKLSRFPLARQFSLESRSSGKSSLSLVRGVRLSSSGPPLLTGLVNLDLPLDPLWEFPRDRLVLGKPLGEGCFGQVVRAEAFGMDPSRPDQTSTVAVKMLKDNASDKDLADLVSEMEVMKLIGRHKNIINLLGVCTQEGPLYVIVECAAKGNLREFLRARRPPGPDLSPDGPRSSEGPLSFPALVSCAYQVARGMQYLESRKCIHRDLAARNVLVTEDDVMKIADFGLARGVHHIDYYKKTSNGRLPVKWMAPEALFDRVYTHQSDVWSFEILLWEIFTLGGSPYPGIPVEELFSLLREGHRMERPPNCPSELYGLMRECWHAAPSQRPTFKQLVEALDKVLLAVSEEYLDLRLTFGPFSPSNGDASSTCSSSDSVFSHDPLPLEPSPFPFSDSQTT
Fibroblast growth factor receptor 3, sequence (P22607 whole entry): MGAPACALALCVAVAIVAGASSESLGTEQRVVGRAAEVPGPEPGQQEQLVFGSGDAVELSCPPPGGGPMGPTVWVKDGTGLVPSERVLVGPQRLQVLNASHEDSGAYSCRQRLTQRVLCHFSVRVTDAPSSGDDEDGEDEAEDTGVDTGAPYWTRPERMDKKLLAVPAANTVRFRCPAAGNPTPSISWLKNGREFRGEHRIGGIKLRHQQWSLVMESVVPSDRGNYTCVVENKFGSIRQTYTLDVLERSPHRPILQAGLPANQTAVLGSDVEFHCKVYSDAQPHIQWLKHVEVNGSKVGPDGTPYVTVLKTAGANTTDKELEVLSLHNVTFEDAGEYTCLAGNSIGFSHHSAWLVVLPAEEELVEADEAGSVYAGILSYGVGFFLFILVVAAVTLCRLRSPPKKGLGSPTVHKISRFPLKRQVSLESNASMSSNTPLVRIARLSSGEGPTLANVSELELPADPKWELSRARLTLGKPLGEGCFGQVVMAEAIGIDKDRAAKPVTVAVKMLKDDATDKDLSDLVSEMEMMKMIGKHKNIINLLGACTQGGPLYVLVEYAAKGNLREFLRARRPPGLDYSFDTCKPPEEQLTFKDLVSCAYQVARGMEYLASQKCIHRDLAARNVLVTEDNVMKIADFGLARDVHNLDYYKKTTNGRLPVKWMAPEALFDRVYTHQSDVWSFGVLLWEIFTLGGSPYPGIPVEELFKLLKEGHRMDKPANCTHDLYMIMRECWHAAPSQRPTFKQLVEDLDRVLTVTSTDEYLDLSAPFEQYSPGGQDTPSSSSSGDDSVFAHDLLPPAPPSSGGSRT
Fibroblast growth factor receptor 2, sequence (P21802 whole entry): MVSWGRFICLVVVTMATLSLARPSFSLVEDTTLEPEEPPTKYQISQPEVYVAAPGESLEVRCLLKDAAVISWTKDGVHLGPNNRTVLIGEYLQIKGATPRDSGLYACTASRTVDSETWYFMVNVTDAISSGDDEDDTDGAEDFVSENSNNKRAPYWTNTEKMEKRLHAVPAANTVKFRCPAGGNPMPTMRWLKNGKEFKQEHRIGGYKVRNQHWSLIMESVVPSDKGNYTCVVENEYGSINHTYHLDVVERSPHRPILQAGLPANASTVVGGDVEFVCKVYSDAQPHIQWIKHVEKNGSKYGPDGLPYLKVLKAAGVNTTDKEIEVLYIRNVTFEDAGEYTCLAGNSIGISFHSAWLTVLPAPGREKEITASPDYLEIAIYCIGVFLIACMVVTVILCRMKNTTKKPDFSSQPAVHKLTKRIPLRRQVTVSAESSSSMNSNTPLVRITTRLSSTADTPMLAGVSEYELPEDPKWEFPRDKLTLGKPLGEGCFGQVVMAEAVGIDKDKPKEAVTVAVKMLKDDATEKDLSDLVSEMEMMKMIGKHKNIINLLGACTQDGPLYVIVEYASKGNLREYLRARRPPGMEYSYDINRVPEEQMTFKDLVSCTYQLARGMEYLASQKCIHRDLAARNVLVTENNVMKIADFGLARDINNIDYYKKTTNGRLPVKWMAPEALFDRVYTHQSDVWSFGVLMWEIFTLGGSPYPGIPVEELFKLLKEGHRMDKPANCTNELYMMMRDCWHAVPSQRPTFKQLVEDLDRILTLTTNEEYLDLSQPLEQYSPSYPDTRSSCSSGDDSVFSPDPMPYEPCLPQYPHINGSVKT

| Structure (SMILES) | IC50 [1] | IC50 [2] | IC50 (BaF3 [3]) | IC50 (MDA-MB-453) | IC50 (Hep 3B2) | IC50 (NCI-H1299) | other results |
| --- | --- | --- | --- | --- | --- | --- | --- |
| C=CC(=O)N[C@H]1CCOC[C@H]1Nc1n[nH]c2ccc(O[C@H](C)c3c(Cl)cncc3Cl)cc12 | > 10000 nM | > 10000 nM |  |  |  |  | IC50 [4]: > 10000 nM |
| C=CC(=O)Nc1cccc(C)c1Nc1n[nH]c2ccc(O[C@H](C)c3c(Cl)cncc3Cl)cc12 | > 10000 nM | > 10000 nM | 2 nM | 620 nM | 2700 nM | 9120 nM |  |
| C=CC(=O)Nc1cc(N2CCN(S(C)(=O)=O)CC2)cc(F)c1Nc1c[nH]c2ccc(O[C@H](C)c3c(Cl)cncc3Cl)cc12 | > 10000 nM | > 10000 nM | 6.5 nM | 33 nM | 110 nM | 2760 nM | IC50 [5]: > 10000 nM |
| C=CC(=O)N1CC[C@@H](Nc2n[nH]c3ccc(O[C@H](C)c4c(Cl)cncc4Cl)cc23)C1 | > 10000 nM | > 10000 nM |  |  |  |  |  |
| C=CC(=O)Nc1ccccc1Nc1n[nH]c2ccc(OCc3c(Cl)cncc3Cl)cc12 | > 10000 nM |  |  |  |  |  |  |
| C=CC(=O)Nc1cccc(F)c1Nc1n[nH]c2ccc(O[C@H](C)c3c(Cl)cncc3Cl)cc12 | > 10000 nM | > 10000 nM | 7.6 nM | 190 nM | 710 nM | 3800 nM |  |
| C=CC(=O)Nc1cccc(C2CC2)c1Nc1n[nH]c2ccc(O[C@H](C)c3c(Cl)cncc3Cl)cc12 | > 10000 nM | > 10000 nM | 520 nM | 7550 nM | 15300 nM | 5170 nM | IC50 [4]: > 10000 nM |
| C=CC(=O)Nc1cc(N2CCOCC2)ccc1Nc1n[nH]c2ccc(O[C@H](C)c3c(Cl)cncc3Cl)cc12 | > 10000 nM | > 10000 nM | 15 nM | 750 nM | 730 nM | 5310 nM |  |
| C=CC(=O)Nc1cc(N(C)CCOC)cc(F)c1Nc1n[nH]c2ccc(O[C@H](C)c3c(Cl)cncc3Cl)cc12 | > 10000 nM | > 10000 nM | 20 nM | 210 nM | 330 nM | 4760 nM |  |
| C=CC(=O)Nc1cccc(Cl)c1Nc1n[nH]c2ccc(O[C@H](C)c3c(Cl)cncc3Cl)cc12 | > 10000 nM | > 10000 nM | 3 nM | 570 nM | 4440 nM | 6100 nM |  |
| C=CC(=O)Nc1ccc(OC)cc1Nc1n[nH]c2ccc(O[C@H](C)c3c(Cl)cncc3Cl)cc12 | > 10000 nM | > 10000 nM | 1990 nM | 15200 nM | 30200 nM | 12500 nM | IC50 [4]: > 10000 nM |
| C=CC(=O)Nc1cc(N2CCN(C)CC2)cc(F)c1Nc1n[nH]c2ccc(O[C@H](C)c3c(Cl)cncc3Cl)cc12 | > 10000 nM | > 10000 nM | 0.9 nM | 18 nM | 18 nM | 2060 nM | IC50 (BaF3 [6]): 3.7 nM; IC50 [7]: 28 nM; IC50 (Huh-7 [8]): 96 nM; IC50 (BaF3 [9]): > 1000 nM; IC50 [5]: > 10000 nM; IC50 (BaF3 [10]): 2.5 nM |
| C=CC(=O)Nc1cc(N2CCC(N3CCOCC3)CC2)cc(F)c1Nc1n[nH]c2ccc(O[C@H](C)c3c(Cl)cncc3Cl)cc12 | > 10000 nM | > 10000 nM | 3.5 nM | 34 nM | 29 nM | 2970 nM | IC50 (BaF3 [6]): 8.1 nM; IC50 [7]: 54 nM; IC50 (Huh-7 [8]): 72 nM; IC50 (BaF3 [9]): > 1000 nM; inhibition [11]: Active; inhibition [12]: Active; inhibition [13]: Active; inhibition (BaF3 [14]): Active; Activity (Huh-7 [15]): Dde; inhibition in vivo at 20 mg/kg (Huh-7 [16]): 25.9%; inhibition in vivo at 40 mg/kg (Huh-7 [17]): 46.9%; Activity [18]: Non-Toxic; IC50 [5]: > 10000 nM; IC50 (BaF3 [10]): 4.7 nM |
| C=CC(=O)Nc1cccc(CC)c1Nc1n[nH]c2ccc(O[C@H](C)c3c(Cl)cncc3Cl)cc12 | > 10000 nM | > 10000 nM | > 2000 nM | 7590 nM | 16300 nM | 4580 nM | IC50 [4]: > 10000 nM |
| C=CC(=O)Nc1ccccc1Nc1n[nH]c2ccc(OC(C)c3c(Cl)cccc3Cl)cc12 (stereo unspecified) | > 10000 nM | > 10000 nM |  |  |  |  | IC50 [4]: > 10000 nM |
| C=CC(=O)Nc1ccccc1Nc1n[nH]c2ccc(OC(C)c3c(Cl)ccc(F)c3Cl)cc12 (stereo unspecified) | > 10000 nM | > 10000 nM |  |  |  |  |  |
| C=CC(=O)Nc1cc(N2CCC(N3CCN(C)CC3)CC2)cc(F)c1Nc1n[nH]c2ccc(O[C@H](C)c3c(Cl)cncc3Cl)cc12 | > 10000 nM | > 10000 nM | 1.7 nM | 10 nM | 47 nM | 1580 nM | IC50 [5]: > 10000 nM |
| C=CC(=O)Nc1cc(N2CCN(C3COC3)CC2)cc(F)c1Nc1n[nH]c2ccc(O[C@H](C)c3c(Cl)cncc3Cl)cc12 | > 10000 nM | > 10000 nM | 1.9 nM | 14 nM | 51 nM | 3000 nM | IC50 [5]: > 10000 nM |
| CCC(=O)Nc1ccccc1Nc1n[nH]c2ccc(O[C@H](C)c3c(Cl)cncc3Cl)cc12 | > 10000 nM | > 10000 nM |  |  |  |  |  |
| C=CC(=O)Nc1cc(N2CCC(N(C)C)CC2)cc(F)c1Nc1n[nH]c2ccc(O[C@H](C)c3c(Cl)cncc3Cl)cc12 | > 10000 nM | > 10000 nM | 1.5 nM | 7 nM | 50 nM | 1600 nM | IC50 [5]: > 10000 nM |
| C=CC(=O)Nc1cccc(OC)c1Nc1n[nH]c2ccc(O[C@H](C)c3c(Cl)cncc3Cl)cc12 | > 10000 nM | > 10000 nM | 3560 nM | 5190 nM | 10500 nM | 4880 nM |  |

Second part, led by results:

| IC50 [1] | IC50 [2] | IC50 (BaF3 [3]) | IC50 (MDA-MB-453) | IC50 (Hep 3B2) | IC50 (NCI-H1299) | Structure (SMILES) | other results |
| --- | --- | --- | --- | --- | --- | --- | --- |
| > 10000 nM | > 10000 nM |  |  |  |  | C=CC(=O)Nc1cn(C)nc1Nc1n[nH]c2ccc(O[C@H](C)c3c(Cl)cncc3Cl)cc12 |  |
| > 10000 nM | > 10000 nM | 6 nM | 120 nM | 290 nM | 2530 nM | C=CC(=O)Nc1cc(N2CCN(C)CC2)ccc1Nc1n[nH]c2ccc(O[C@H](C)c3c(Cl)cncc3Cl)cc12 |  |
| > 10000 nM |  |  |  |  |  | C=CC(=O)Nc1ccccc1Nc1n[nH]c2ccc(OC(CC)c3c(Cl)cncc3Cl)cc12 (stereo unspecified) |  |
| > 10000 nM | > 10000 nM |  |  |  |  | C=CC(=O)N1CCC[C@@H](Nc2n[nH]c3ccc(O[C@H](C)c4c(Cl)cncc4Cl)cc23)C1 | IC50 [4]: > 10000 nM |
| > 10000 nM | > 10000 nM |  |  |  |  | C=CC(=O)N[C@H]1CCCC[C@H]1Nc1n[nH]c2ccc(O[C@H](C)c3c(Cl)cncc3Cl)cc12 | IC50 [4]: > 10000 nM |
| > 10000 nM | > 10000 nM | 0.2 nM | 110 nM | 220 nM | 3360 nM | C=CC(=O)Nc1cc(N2CCC(N3CCOCC3)CC2)ccc1Nc1n[nH]c2ccc(O[C@H](C)c3c(Cl)cncc3Cl)cc12 | IC50 [5]: > 10000 nM |
| > 10000 nM | > 10000 nM | 9.5 nM | 64 nM | 220 nM | 3760 nM | C=CC(=O)Nc1cc(N2CCOCC2)cc(F)c1Nc1n[nH]c2ccc(O[C@H](C)c3c(Cl)cncc3Cl)cc12 |  |
| 949 nM |  |  |  |  |  | C=CC(=O)Nc1ccccc1Nc1n[nH]c2ccc(O[C@H](C)c3c(Cl)cncc3Cl)cc12 |  |
| 4770 nM |  |  |  |  |  | C=CC(=O)Nc1ccccc1Nc1n[nH]c2cc(-c3c(Cl)c(OC)cc(OC)c3Cl)ccc12 | IC50 [4]: > 10000 nM |
| 238 nM |  | 2.4 nM | 62 nM | 160 nM | 1070 nM | C=CC(=O)Nc1cccc(Cl)c1Nc1ncc2cc(-c3c(Cl)c(OC)cc(OC)c3Cl)ccc2n1 | IC50 (BaF3 [6]): > 100 nM; IC50 [7]: 194 nM; IC50 (Huh-7 [8]): 48 nM; IC50 (BaF3 [9]): > 1000 nM; IC50 (BaF3 [10]): > 100 nM |
